This note sets out measurements from ChEMBL document CHEMBL1201862, “PubChem BioAssay data set” (2004).

Assay in all cases: inhibition of tumour cell growth, NCI panel, 48 h
For assay [1], the system named is A498.
Assay [2] has as its system HL-60.
The test system of assay [3] is HOP-92.
The subject of assay [4] is Hs-578T.
The subject of assay [5] is KM12.
For assay [6], the system named is Malme-3M.
The test system of assay [7] is NCI-H226.
Assay [8] relates to NCI-H522.
For assay [9], the system named is OVCAR-3.
In assay [10] the test system is OVCAR-5.
Assay [11] deals with SK-MEL-28.
In assay [12] the test system is SK-MEL-5.
The test system of assay [13] is SK-OV-3.
The test system of assay [14] is SR.
Assay [15] relates to T47D.
Assay [16] deals with U-251.
The test system of assay [17] is UO-31.
The subject of assay [18] is A549.
Assay [19] relates to ACHN.
Assay [20] relates to SF-268.

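Compound exposure: 48 hours, 5 concentrations, 96-well plates. At the GI50, growth is halved.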 Activity calls are given as the source filed them. No stated cut-off is given here; in the data, active = GI50 up to about 1.1 µM and inactive = higher. A value given as a limit tells only on which side of the number the result lay.

As to `CO/C(=N\N=C(/c1ccccc1)C(F)(F)F)c1ccncc1`, the GI50 in assay [1] is 87.5 µM (inactive); in [2] it was > 100 µM (inactive); in assay [3], 53.2 µM (inactive); in [4], 49.2 µM (inactive); in assay [5], 43.7 µM (inactive); in assay [6] it was 72.8 µM (inactive). Also, the GI50 is 17.2 µM (inactive) in assay [7]; 26.6 µM (inactive) in assay [8]; 37.8 µM (inactive) in [9]; > 100 µM (inactive) in assay [10]; 57.7 µM (inactive) in assay [11]; 21.8 µM (inactive) in [12]. Also, the GI50 was 46.3 µM (inactive) in assay [13]; 54.6 µM (inactive) in assay [14]; 35.2 µM (inactive) in [15]; 48.4 µM (inactive) in [16]; 38.6 µM (inactive) in [17].

As to `COP(=O)(O)C(N)Cc1c[nH]c2ccccc12` (stereo unspecified), the GI50 in assay [1] was > 100 µM (inactive); in assay [18], > 100 µM (inactive); in assay [19], > 100 µM (inactive); in assay [2] it was > 10 µM (inactive); in [3] it was > 100 µM (inactive); in [4], > 100 µM (inactive). Moreover, the GI50 in assay [7], in assay [8], in [9], in assay [10], in [11] and in assay [12] was > 100 µM (inactive) in each case. The GI50 in [13], in assay [14], in assay [15], in assay [16] and in [17] was > 100 µM (inactive) throughout.

Consider `O=C(Nc1ccc2c(c1)oc(=O)c1ccccc12)C(Cl)Cl`, for which the GI50 in [1] is > 100 µM (inactive); in assay [18] it was 39.1 µM (inactive); in [19], > 100 µM (inactive); in assay [2], 12.2 µM (inactive); in assay [3], > 100 µM (inactive); in assay [4], > 100 µM (inactive). For the same compound, the GI50 in assay [5] is 33.2 µM (inactive); in assay [6] it was > 100 µM (inactive); in [7], > 100 µM (inactive); in assay [8], > 100 µM (inactive); in assay [9], 28.8 µM (inactive); in assay [10], > 100 µM (inactive). Moreover, the GI50 in assay [20] is > 100 µM (inactive); in [11], > 100 µM (inactive); in [12], > 100 µM (inactive); in assay [14], 45 µM (inactive); in assay [15] it was > 100 µM (inactive); in assay [16], 60.1 µM (inactive). The GI50 in [17] was > 100 µM (inactive).

As for `CC(=O)C1(c2ccccc2)CCCN(C)CC1` (stereo unspecified), the GI50 in [1], in assay [3], in assay [4], in [5], in [6] and in assay [7] was > 100 µM (inactive) each time. Moreover, the GI50 in [9], in assay [10], in [11], in assay [12], in assay [13] and in assay [14] was > 100 µM (inactive) in each case. Besides, the GI50 in [15], in assay [16] and in [17] was > 100 µM (inactive) throughout.

Regarding `S=C1N(c2ccc(Cl)cc2)C2=C(/N=N/c3ccccc3)C(=Nc3ccccc3S2)N1c1ccccn1`, the GI50 in assay [1] was < 0.01 µM (active); in assay [18], 13.6 µM (inactive); in assay [19] it was 14.5 µM (inactive); in assay [2] it was 12 µM (inactive); in [3] it was 12.6 µM (inactive); in assay [4], 16.4 µM (inactive). The GI50 in assay [5] was 11.6 µM (inactive); in assay [6] it was 2.78 µM (inactive); in assay [9], 14.2 µM (inactive); in assay [10], 19.1 µM (inactive); in assay [20] it was 3.59 µM (inactive); in assay [11], 15.4 µM (inactive). The GI50 in [12] is 11.4 µM (inactive); in assay [13] it was 17.8 µM (inactive); in [14], 11.2 µM (inactive); in assay [15], 0.075 µM (active); in assay [16], 11 µM (inactive); in assay [17], 10.1 µM (inactive).

Take `COc1cc2c(cc1OC)CC1c3cc(OC)c(OC)cc3CCN1CC2` (stereo unspecified): the GI50 was > 100 µM (inactive) in assay [1]; > 100 µM (inactive) in assay [18]; 1.64 µM (inactive) in [19]; 10.6 µM (inactive) in assay [2]; 69.3 µM (inactive) in [3]; 22.9 µM (inactive) in assay [4]. Further, the GI50 is > 100 µM (inactive) in assay [5]; 19.6 µM (inactive) in assay [7]; > 100 µM (inactive) in assay [8]; > 100 µM (inactive) in assay [9]; > 100 µM (inactive) in [10]; 42.1 µM (inactive) in [20]. Besides, the GI50 in assay [11] is > 100 µM (inactive); in assay [12], 30.8 µM (inactive); in [13] it was > 100 µM (inactive); in assay [14], > 100 µM (inactive); in [15] it was > 100 µM (inactive); in assay [16], 52.8 µM (inactive). For the same compound, in assay [17], the GI50 was 0.199 µM (active).

For the compound `COP(=O)(OC)/C(=C\C1=CN(C(c2ccccc2)(c2ccccc2)c2ccccc2)CN1)NC=O`, the GI50 in assay [1] was 17.9 µM (inactive); in [18], 14.2 µM (inactive); in [19], 15.1 µM (inactive); in assay [2], 18.9 µM (inactive); in [3], 10.3 µM (inactive); in assay [4] it was 23.3 µM (inactive). The GI50 in [7] is 21.2 µM (inactive); in [8], 17 µM (inactive); in assay [9], 16.1 µM (inactive); in assay [10], 17.8 µM (inactive); in assay [11] it was 17.7 µM (inactive); in [12], 15.9 µM (inactive). Further, the GI50 in assay [13] was 15.9 µM (inactive); in [14], 14.2 µM (inactive); in assay [15] it was 17.6 µM (inactive); in assay [16], 16.3 µM (inactive); in assay [17], 15 µM (inactive).

For the compound `CO/C(C)=N/CCC1=CCCCC1`, the GI50 in assay [1], in [18], in assay [19], in assay [3], in [4] and in assay [5] was > 100 µM (inactive) in each case. For the same compound, the GI50 is > 100 µM (inactive) in assay [6]; > 100 µM (inactive) in assay [8]; 89.1 µM (inactive) in [9]; > 100 µM (inactive) in assay [10]; > 100 µM (inactive) in [20]; > 100 µM (inactive) in assay [11]. Besides, the GI50 was > 100 µM (inactive) in [12]; > 100 µM (inactive) in assay [13]; 0.104 µM (active) in assay [14]; > 100 µM (inactive) in assay [15]; > 100 µM (inactive) in assay [16]; > 100 µM (inactive) in assay [17].

Regarding `CCOC(=O)C(C)(C)C(O)C(C)C` (stereo unspecified), the GI50 in assay [1], in assay [18], in [19], in assay [2], in assay [3] and in assay [4] was > 100 µM (inactive) throughout. The GI50 in assay [5], in assay [6], in assay [8], in [9], in assay [10] and in assay [20] was > 100 µM (inactive) each time. The GI50 in assay [11], in assay [12], in assay [13], in [14], in assay [15] and in assay [16] was > 100 µM (inactive) each time. The GI50 in assay [17] was > 100 µM (inactive).

For the compound `COc1cccc(-c2cc(O)c3cccnc3n2)c1`, the GI50 in assay [1] was 0.516 µM (active); in assay [18] it was 0.102 µM (active); in [19] it was 0.179 µM (active); in [2], 0.0261 µM (active); in [3], 0.0776 µM (active); in assay [4], 0.092 µM (active). The GI50 is 0.0581 µM (active) in assay [5]; > 100 µM (inactive) in assay [6]; 0.325 µM (active) in assay [7]; 0.0698 µM (active) in assay [8]; 0.0571 µM (active) in assay [9]; 0.611 µM (active) in assay [20]. The GI50 is 0.234 µM (active) in [11]; 0.0546 µM (active) in assay [12]; 0.0614 µM (active) in assay [14]; > 100 µM (inactive) in assay [15]; 0.0984 µM (active) in assay [16]; 12.3 µM (inactive) in assay [17].

On to `Cc1ccc2nc(-c3ccc(C(C)(C)C)cc3)oc(=O)c2c1`, for which the GI50 in assay [1] was 24.8 µM (inactive); in [18] it was 14.6 µM (inactive); in assay [19] it was 12.3 µM (inactive); in assay [2], 16.6 µM (inactive); in assay [3] it was 29 µM (inactive); in [4], 27.7 µM (inactive). Further, the GI50 in assay [5] is 7.38 µM (inactive); in assay [6], 21.6 µM (inactive); in [8] it was 11.5 µM (inactive); in assay [9], 21.4 µM (inactive); in assay [10], 28.8 µM (inactive); in assay [20], 24.5 µM (inactive). Further, the GI50 in assay [11] was 27.4 µM (inactive); in assay [12], 14.3 µM (inactive); in [13] it was 22.9 µM (inactive); in assay [14], 21.2 µM (inactive); in [15], 21.4 µM (inactive); in assay [16] it was 16.2 µM (inactive). In addition, the GI50 in [17] was 26.6 µM (inactive).
